Laboratory results taken from PubChem BioAssay AID1963434 (Molecular Pharmacology Branch, DTP, NCI, 2024).

System: 755483-174-R-J1-PDC complex spheroid growth, percent test/control
Test: Anticancer human tumor 755483-174-R-J1-PDC patient-derived rhabdomyosarcoma cell line growth inhibition [Asc]
Settings: for IC50: curve of first compound; for viability, T/C: stronger effect = lower value
Outline: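 Tumor cells were grown as multicellular spheroids with stromal HUVEC and mesenchymal stem cells and treated singly or in combination. Concentrations fell in half-log steps from the clinical Cmax, or from 10 microM where none was known.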

[1] = second compound 0.1 µM, first compound 0.0316 µM
[2] = second compound 0.1 µM, first compound 0.1 µM
[3] = second compound 0.316 µM, first compound 0.0316 µM
[4] = second compound 0.316 µM, first compound 0.1 µM
[5] = second compound 1 µM, first compound 0.0316 µM
[6] = second compound 1 µM, first compound 0.1 µM
[7] = second compound 3.16 µM, first compound 0.0316 µM
[8] = second compound 3.16 µM, first compound 0.1 µM
[9] = second compound 10 µM, first compound 0.0316 µM
[10] = second compound 10 µM, first compound 0.1 µM
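Note: spheroids exposed to compounds for seven days before readout.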

`Cc1nc(N2CCC3(CC2)COC(C)C3N)c(CO)nc1Sc1ccnc(N)c1Cl` (stereo not given) + CNC(C)C(=O)NC1CN(S(=O)(=O)c2cccc(S(=O)(=O)N3CCC4CCC(C(=O)NC(c5ccccc5)c5ccccc5)N4C(=O)C(NC(=O)C(C)NC)C3)c2)CCC2CCC(C(=O)NC(c3ccccc3)c3ccccc3)N2C1=O was tested, and the IC50 (second compound 0.01 µM) was 103 nM, the IC50 (second compound 0.0316 µM) was less than 9.49 nM and the IC50 (second compound 0.1 µM) was less than 9.49 nM. The IC50 (second compound 0.316 µM) was less than 9.49 nM, the IC50 (second compound 1 µM) was less than 9.49 nM and the viability, T/C (second compound 0.01 µM, first compound 0.00949 µM) was 46.1%. For the same molecule, the viability, T/C (second compound 0.01 µM, first compound 0.03 µM) was 57.3%, the viability, T/C (second compound 0.01 µM, first compound 0.0949 µM) was 50.5% and the viability, T/C (second compound 0.01 µM, first compound 0.3 µM) was 35.6%. It also gave a viability, T/C (second compound 0.01 µM, first compound 0.949 µM) of 23%, a viability, T/C (second compound 0.01 µM, first compound 3 µM) of 24.7% and a viability, T/C (second compound 0.0316 µM, first compound 0.00949 µM) of 41.4%. For the same molecule, the viability, T/C (second compound 0.0316 µM, first compound 0.03 µM) was 45.6%, the viability, T/C (second compound 0.0316 µM, first compound 0.0949 µM) was 40.8% and the viability, T/C (second compound 0.0316 µM, first compound 0.3 µM) was 32.7%. The viability, T/C (second compound 0.0316 µM, first compound 0.949 µM) was 23.2%, the viability, T/C (second compound 0.0316 µM, first compound 3 µM) was 18.2% and the viability, T/C (second compound 0.1 µM, first compound 0.00949 µM) was 26.6%. It also gave a viability, T/C (second compound 0.1 µM, first compound 0.03 µM) of 45.9%, a viability, T/C (second compound 0.1 µM, first compound 0.0949 µM) of 20.3% and a viability, T/C (second compound 0.1 µM, first compound 0.3 µM) of 29.9%. It also gave a viability, T/C (second compound 0.1 µM, first compound 0.949 µM) of 30.1%, a viability, T/C (second compound 0.1 µM, first compound 3 µM) of 18.5% and a viability, T/C (second compound 0.316 µM, first compound 0.00949 µM) of 50.1%. For the same molecule, the viability, T/C (second compound 0.316 µM, first compound 0.03 µM) was 32%, the viability, T/C (second compound 0.316 µM, first compound 0.0949 µM) was 22.1% and the viability, T/C (second compound 0.316 µM, first compound 0.3 µM) was 24.7%. It also gave a viability, T/C (second compound 0.316 µM, first compound 0.949 µM) of 23.5%, a viability, T/C (second compound 0.316 µM, first compound 3 µM) of 11.4% and a viability, T/C (second compound 1 µM, first compound 0.00949 µM) of 17.1%. For the same molecule, the viability, T/C (second compound 1 µM, first compound 0.03 µM) was 16.9%, the viability, T/C (second compound 1 µM, first compound 0.0949 µM) was 21.7% and the viability, T/C (second compound 1 µM, first compound 0.3 µM) was 24.9%. For the same molecule, the viability, T/C (second compound 1 µM, first compound 0.949 µM) was 19.1% and the viability, T/C (second compound 1 µM, first compound 3 µM) was 12.2%.

In the case of `Cn1ncnc1[C@H]1c2n[nH]c(=O)c3cc(F)cc(c23)N[C@@H]1c1ccc(F)cc1` + Cc1c(S(C)(=O)=O)c(-c2cc(F)cc(N3CCN(c4ccc(NS(=O)(=O)c5ccc(NC(CCN6CCC(C(=O)OCCCP(=O)(O)O)CC6)CSc6ccccc6)c(S(=O)(=O)C(F)(F)F)c5)cc4)CC3)c2)c(-c2ccc(Cl)cc2)n1C(C)C, the IC50 (second compound 0.1 µM) is reported as 1.85 nM, the IC50 (second compound 0.316 µM) is reported as less than 0.316 nM and the IC50 (second compound 1 µM) is reported as less than 0.316 nM. It also gave an IC50 (second compound 3.16 µM) of less than 0.316 nM, an IC50 (second compound 10 µM) of less than 0.316 nM and a viability, T/C (second compound 0.1 µM, first compound 0.000316 µM) of 50.8%. It also gave a viability, T/C (second compound 0.1 µM, first compound 0.001 µM) of 50.7%, a viability, T/C (second compound 0.1 µM, first compound 0.00316 µM) of 49.3% and a viability, T/C (second compound 0.1 µM, first compound 0.01 µM) of 30.7%. For the same molecule, the viability, T/C [1] was 28.1%, the viability, T/C [2] was 35% and the viability, T/C (second compound 0.316 µM, first compound 0.000316 µM) was 46.2%. For the same molecule, the viability, T/C (second compound 0.316 µM, first compound 0.001 µM) was 41%, the viability, T/C (second compound 0.316 µM, first compound 0.00316 µM) was 34.7% and the viability, T/C (second compound 0.316 µM, first compound 0.01 µM) was 38.1%. The viability, T/C [3] was 25%, the viability, T/C [4] was 30.3% and the viability, T/C (second compound 1 µM, first compound 0.000316 µM) was 38.2%. The viability, T/C (second compound 1 µM, first compound 0.001 µM) was 32.1%, the viability, T/C (second compound 1 µM, first compound 0.00316 µM) was 35% and the viability, T/C (second compound 1 µM, first compound 0.01 µM) was 34%. It also gave a viability, T/C [5] of 23.7%, a viability, T/C [6] of 21.6% and a viability, T/C (second compound 3.16 µM, first compound 0.000316 µM) of 38%. For the same molecule, the viability, T/C (second compound 3.16 µM, first compound 0.001 µM) was 39.3%, the viability, T/C (second compound 3.16 µM, first compound 0.00316 µM) was 24.7% and the viability, T/C (second compound 3.16 µM, first compound 0.01 µM) was 18.6%. For the same molecule, the viability, T/C [7] was 19.2%, the viability, T/C [8] was 18.8% and the viability, T/C (second compound 10 µM, first compound 0.000316 µM) was 32.6%. For the same molecule, the viability, T/C (second compound 10 µM, first compound 0.001 µM) was 39.4%, the viability, T/C (second compound 10 µM, first compound 0.00316 µM) was 32.9% and the viability, T/C (second compound 10 µM, first compound 0.01 µM) was 29.5%. For the same molecule, the viability, T/C [9] was 16.7% and the viability, T/C [10] was 15.7%.

For `O=C(c1cc(Cc2n[nH]c(=O)c3ccccc23)ccc1F)N1CCN(C(=O)C2CC2)CC1` + Cc1c(S(C)(=O)=O)c(-c2cc(F)cc(N3CCN(c4ccc(NS(=O)(=O)c5ccc(NC(CCN6CCC(C(=O)OCCCP(=O)(O)O)CC6)CSc6ccccc6)c(S(=O)(=O)C(F)(F)F)c5)cc4)CC3)c2)c(-c2ccc(Cl)cc2)n1C(C)C, the IC50 (second compound 0.1 µM) was less than 31.6 nM, the IC50 (second compound 0.316 µM) was less than 31.6 nM and the IC50 (second compound 1 µM) was less than 31.6 nM. The IC50 (second compound 3.16 µM) was less than 31.6 nM, the IC50 (second compound 10 µM) was less than 31.6 nM and the viability, T/C [1] was 40.4%. The viability, T/C [2] was 35.8%, the viability, T/C (second compound 0.1 µM, first compound 0.316 µM) was 53% and the viability, T/C (second compound 0.1 µM, first compound 1 µM) was 47.3%. It also gave a viability, T/C (second compound 0.1 µM, first compound 3.16 µM) of 25.8%, a viability, T/C (second compound 0.1 µM, first compound 10 µM) of 14.7% and a viability, T/C [3] of 39.7%. It also gave a viability, T/C [4] of 32.4%, a viability, T/C (second compound 0.316 µM, first compound 0.316 µM) of 28.6% and a viability, T/C (second compound 0.316 µM, first compound 1 µM) of 25.4%. The viability, T/C (second compound 0.316 µM, first compound 3.16 µM) was 23.5%, the viability, T/C (second compound 0.316 µM, first compound 10 µM) was 12.2% and the viability, T/C [5] was 32.6%. For the same molecule, the viability, T/C [6] was 38.9%, the viability, T/C (second compound 1 µM, first compound 0.316 µM) was 24.2% and the viability, T/C (second compound 1 µM, first compound 1 µM) was 31.6%. For the same molecule, the viability, T/C (second compound 1 µM, first compound 3.16 µM) was 20.4%, the viability, T/C (second compound 1 µM, first compound 10 µM) was 12.7% and the viability, T/C [7] was 31%. The viability, T/C [8] was 32.7%, the viability, T/C (second compound 3.16 µM, first compound 0.316 µM) was 22.9% and the viability, T/C (second compound 3.16 µM, first compound 1 µM) was 17.6%. The viability, T/C (second compound 3.16 µM, first compound 3.16 µM) was 14.7%, the viability, T/C (second compound 3.16 µM, first compound 10 µM) was 8.75% and the viability, T/C [9] was 20.1%. The viability, T/C [10] was 30.2%, the viability, T/C (second compound 10 µM, first compound 0.316 µM) was 24.1% and the viability, T/C (second compound 10 µM, first compound 1 µM) was 33.2%. The viability, T/C (second compound 10 µM, first compound 3.16 µM) was 20.3% and the viability, T/C (second compound 10 µM, first compound 10 µM) was 9.59%.
